Source: publication PMC4512978, “Synthesis and evaluation in rats of homologous series of [^18F]-labeled dopamine D2/3 receptor agonists based on the 2-aminomethylchroman scaffold as potential PET tracers” (EJNMMI Research, 2015)

System: D2/3R
Assay: Kinetic analysis of PET data (1TCM, 2TCM, Logan, SRTM);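 as to 2TCM BPND change relative to control: Raclopride 1 mg/kg intravenous pretreatment versus saline controls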;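 as to SRTM BPND change relative to control: Raclopride 1 mg/kg intravenous pretreatment versus saline controls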
Type: in vivo, Sprague-Dawley rats
Design: key to SRTM BPND / 1TCM BPND / 2TCM BPND (VT-based): BPND = VT(target)/VT(cerebellum) − 1 (or SRTM, cerebellum reference); SRTM BPND change relative to control / 1TCM BPND change relative to control / 2TCM BPND change relative to control / Logan BPND change relative to control: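 Raclopride 1 mg/kg intravenous pretreatment versus saline controls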; 1TCM VT / 2TCM VT: unit not given here
Protocol: Kinetic analysis is described using the nomenclature proposed by Innis et al.. ROI TACs of [^18F]FEt-AMC13 were analyzed with one-tissue and two-tissue compartmental models of reversible binding (1TCM and 2TCM, respectively) to obtain individual rate constants. From these, the regional distribution volumes (VT) were calculated and compared to those obtained with Logan graphical analysis. Binding potentials (BPND) were calculated from the distribution ratios as VT (target) / VT (cerebellum) – 1, or estimated with the simplified reference tissue model (SRTM) using the cerebellum as reference region.
Metabolite-corrected plasma-derived arterial input function and whole blood time-activity curve were used for Logan, 1TCM, and 2TCM analyses. Fractional cerebral blood volume was set to 3.6 % [27]. For one rat in the raclopride-treated group, no input curves could be obtained; therefore, its PET data were only analyzed with SRTM.
Degree of D2/3R-specific binding of the tracers was characterized by BPND (as given above) or the specific binding ratio (SBR) given as target region activity/cerebellar activity - 1. Both were calculated under control conditions and in response to the raclopride challenge.

[1] = Pituitary, raclopride, listed as [18F]FEt-AMC13
[2] = Striatum, raclopride, listed as [18F]FEt-AMC13
[3] = Thalamus, raclopride, listed as [18F]FEt-AMC13

## Oc1ccc2c(c1)O[C@@H](CNCc1ccc(OCC[18F])cc1)CC2 [[^18F]FEt-AMC13]
Pituitary, raclopride
  SRTM BPND: 0.55 ± 0.53
  SRTM BPND change relative to control: −22%
[1]
  2TCM BPND change relative to control: -23%
  SRTM BPND: 0.55±0.53
  SRTM BPND change relative to control: –22%
Striatum, control
  1TCM BPND: 0.63 ± 0.08
  1TCM VT: 7.60±0.64
  2TCM BPND (VT-based): 0.56 ± 0.05
  2TCM VT: 7.90±0.84
  Logan BPND: 0.52 ± 0.01
  Logan VT: 7.72±0.84
  SRTM BPND: 0.51 ± 0.02
Striatum, control rat A
  1TCM K1: 0.45 ± 0.03 mL/g/min
  1TCM k2: 0.05 ± 0.01 min⁻¹
  2TCM K1: 1.77 ± 0.62 mL/g/min
  2TCM k2: 4.95 ± 3.00 min⁻¹
  2TCM k3: 1.34 ± 0.29 min⁻¹
  2TCM k4: 0.05 ± 0.01 min⁻¹
Striatum, control rat B
  1TCM K1: 0.49 ± 0.02 mL/g/min
  1TCM k2: 0.06 ± 0.01 min⁻¹
  2TCM K1: 0.63 ± 0.14 mL/g/min
  2TCM k2: 0.48 ± 0.68 min⁻¹
  2TCM k3: 0.81 ± 1.13 min⁻¹
  2TCM k4: 0.17 ± 0.07 min⁻¹
Striatum, control rat C
  1TCM K1: 0.47 ± 0.02 mL/g/min
  1TCM k2: 0.07 ± 0.004 min⁻¹
  2TCM K1: 0.98 ± 0.85 mL/g/min
  2TCM k2: 3.47 ± 8.55 min⁻¹
  2TCM k3: 2.81 ± 3.01 min⁻¹
  2TCM k4: 0.11 ± 0.08 min⁻¹
Striatum, control rat D
  1TCM K1: 0.51 ± 0.02 mL/g/min
  1TCM k2: 0.07 ± 0.01 min⁻¹
  2TCM K1: 8.06 ± 30.34 mL/g/min
  2TCM k2: 58.0 ± 203.8 min⁻¹
  2TCM k3: 3.54 ± 188.40 min⁻¹
  2TCM k4: 0.07 ± 263.98 min⁻¹
Striatum, raclopride
  1TCM BPND: 0.51±0.06
  1TCM BPND change relative to control: -18%
  1TCM VT: 6.69±0.41
  2TCM BPND (VT-based): 0.41 ± 0.05
  2TCM BPND change relative to control: −27%
  2TCM VT: 6.97±0.39
  Logan BPND: 0.40±0.04
  Logan BPND change relative to control: -24%
  Logan VT: 6.97±0.32
  SRTM BPND: 0.38 ± 0.05
  SRTM BPND change relative to control: −26%
[2]
  2TCM BPND (VT-based): 0.41±0.05
  2TCM BPND change relative to control: -27%
  SRTM BPND: 0.38±0.05
  SRTM BPND change relative to control: –26%
Thalamus, control
  1TCM BPND: 0.38±0.06
  1TCM VT: 6.45±0.62
  2TCM BPND (VT-based): 0.33 ± 0.02
  2TCM VT: 6.75±0.62
  Logan BPND: 0.31±0.02
  Logan VT: 6.64±0.61
  SRTM BPND: 0.28 ± 0.06
Thalamus, control rat A
  1TCM K1: 0.44 ± 0.02 mL/g/min
  1TCM k2: 0.06 ± 0.01 min⁻¹
  2TCM K1: 14.0 ± 117.5 mL/g/min
  2TCM k2: 104 ± 848 min⁻¹
  2TCM k3: 3.05 ± 820.48 min⁻¹
  2TCM k4: 0.05 ± 961.03 min⁻¹
Thalamus, control rat B
  1TCM K1: 0.65 ± 0.03 mL/g/min
  1TCM k2: 0.10 ± 0.01 min⁻¹
  2TCM K1: 0.88 ± 0.12 mL/g/min
  2TCM k2: 0.58 ± 0.58 min⁻¹
  2TCM k3: 0.67 ± 1.63 min⁻¹
  2TCM k4: 0.19 ± 1.99 min⁻¹
Thalamus, control rat C
  1TCM K1: 0.55 ± 0.02 mL/g/min
  1TCM k2: 0.09 ± 0.01 min⁻¹
  2TCM K1: 0.71 ± 0.13 mL/g/min
  2TCM k2: 0.48 ± 0.97 min⁻¹
  2TCM k3: 0.76 ± 3.17 min⁻¹
  2TCM k4: 0.23 ± 3.61 min⁻¹
Thalamus, control rat D
  1TCM K1: 0.64 ± 0.03 mL/g/min
  1TCM k2: 0.11 ± 0.01 min⁻¹
  2TCM K1: 3.13 ± 3.18 mL/g/min
  2TCM k2: 12.3 ± 18.9 min⁻¹
  2TCM k3: 2.61 ± 0.96 min⁻¹
  2TCM k4: 0.11 ± 0.02 min⁻¹
Thalamus, raclopride
  1TCM BPND: 0.33±0.04
  1TCM BPND change relative to control: -12%
  1TCM VT: 5.93±0.71
  2TCM BPND (VT-based): 0.30 ± 0.01
  2TCM BPND change relative to control: −10%
  2TCM VT: 6.44±0.60
  Logan BPND: 0.28±0.005
  Logan BPND change relative to control: -10%
  Logan VT: 6.40±0.40
  SRTM BPND: 0.26 ± 0.02
  SRTM BPND change relative to control: −7%
[3]
  2TCM BPND (VT-based): 0.30±0.01
  2TCM BPND change relative to control: -10%
  SRTM BPND: 0.26±0.02
  SRTM BPND change relative to control: –7%
Modified Lassen plot
  part of cerebellar VT potentially displaceable (D2/3R specific binding): 11–26%
  part of striatal VT potentially displaceable (D2/3R specific binding): 41–55%
Range depending on the estimation method
  Striatal BPND relative to cerebellum: 0.51–0.63
